Assay results as given in patent US12240853B2, “Compounds useful in HIV therapy” (GlaxoSmithKline Intellectual Property (No.2) Limited, priority 2019, dated 2025).

Experiments:
[1] = test system: HIV pseudotyped virus (NL4-3 provirus, luciferase reporter), WT; assay: PSV (pseudotyped virus) assay, WT; conditions: Human immunodeficiency virus 1, NL43, 72 h, read-out: WT IC50
Description: A pseudotyped virus assay (PSV) was used to assess the potency of the HIV inhibitor.
The PSV assay was performed by using U373 cells stably transformed to express human CD4, the primary receptor for HIV entry and either human CXCR4 or human CCR5 which are the co-receptors required for HIV entry as target cells for infection. […] This dose-range was applied to U373 cells and the pre-made pseudotyped virus added. The amount of luciferase signal produced after 3 days of culture was used to reflect the level of pseudotyped virus infection. An IC50, or the concentration of inhibitor required to reduce PSV infection by 50% from the infection containing no inhibitor was calculated. […] IC50 values were determined from a 10 point dose response curve using 3-4-fold serial dilution for each compound, which spans a concentration range>1000 fold.
These values are plotted against the molar compound concentrations using the standard four parameter logistic equation: y=((Vmax*x^n)/(K^n+x^n))+Y2

[2] = test system: HIV pseudotyped virus, M184V; type: cell-based; conditions: U373 cells (CD4, CXCR4 or CCR5), luciferase signal after 3 days

Structure (SMILES)	IC50 [1] [µM]	IC50 [2] [µM]
C#C[C@]1(COC(=O)Cc2ccccc2)O[C@@H](n2cnc3c(N)nc(F)nc32)C[C@@H]1O [Example 3, [(2R,3S,5R)-5-(6-amino-2-fluoro-9H-purin-9-yl)-2-ethynyl-3-hydroxyoxolan-2-yl]methyl 2-phenylacetate]	0.002	0.01
C#C[C@]1(COC(=O)CCCC)O[C@@H](n2cnc3c(NC(=O)CCC)nc(F)nc32)C[C@@H]1O [Example 25, ((2R,3S,5R)-5-(6-butyramido-2-fluoro-9H-purin-9-yl)-2-ethynyl-3-hydroxytetrahydrofuran-2-yl)methyl Pentanoate]	0.021	0.186
C#C[C@]1(COC(=O)COCCOCCOC)O[C@@H](n2cnc3c(N)nc(F)nc32)C[C@@H]1O [Example 7, ((2R,3S,5R)-5-(6-amino-2-fluoro-9H-purin-9-yl)-2-ethynyl-3-hydroxytetrahydrofuran-2-yl)methyl 2-(2-(2-methoxyethoxy)ethoxy)acetate]	0.004	0.024
C#C[C@]1(COC(=O)CCCC(=O)OC(COC(=O)CCCCCCCCCCCCC)COC(=O)CCCCCCCCCCCCC)O[C@@H](n2cnc3c(N)nc(F)nc32)C[C@@H]1O [Example 13, ((2R,3S,5R)-5-(6-amino-2-fluoro-9H-purin-9-yl)-2-ethynyl-3-hydroxytetrahydrofuran-2-yl)methyl 1,3-bis(tetradecanoyloxy)propan-2-yl) glutarate]	0.508	3.61
C#C[C@]1(COC(=O)CCCCCCCCCCCCCCCCCCC(=O)O)O[C@@H](n2cnc3c(N)nc(F)nc32)C[C@@H]1O [Example 11, 20-(((2R,3S,5R)-5-(6-amino-2-fluoro-9H-purin-9-yl)-2-ethynyl-3-hydroxytetrahydrofuran-2-yl)methoxy)-20-oxoicosanoic Acid]	0.008	0.037
C#C[C@@]12COC(=O)CCCCCCCCCCCCC(=O)O[C@H]1C[C@H](n1cnc3c(N)nc(F)nc31)O2 [Example 33, (2R,3aS,20aR)-2-(6-amino-2-fluoro-9H-purin-9-yl)-20a-ethynylhexadecahydro-2H-furo[3,2-b][1,5]dioxacyclononadecine-5,18-dione]	0.017	0.086
C#C[C@]1(COC(=O)CCCCCCCCC(=O)O)O[C@@H](n2cnc3c(N)nc(F)nc32)C[C@@H]1O [Example 9, 10-(((2R,3S,5R)-5-(6-amino-2-fluoro-9H-purin-9-yl)-2-ethynyl-3-hydroxytetrahydrofuran-2-yl)methoxy)-10-oxodecanoic Acid]	0.035	0.167
C#C[C@]1(COC(=O)C(CCC)CCC)O[C@@H](n2cnc3c(N)nc(F)nc32)C[C@@H]1OC(=O)CCCCCCCCCCC [Example 29, (2R,3S,5R)-5-(6-amino-2-fluoro-9H-purin-9-yl)-2-ethynyl-2-(((2-propylpentanoyl)oxy)methyl)tetrahydrofuran-3-yl Dodecanoate]	0.238	1.35
C#C[C@]1(COC(=O)CCCC)O[C@@H](n2cnc3c(N)nc(F)nc32)C[C@@H]1OC(=O)CCCC [Example 23, (2R,3S,5R)-5-(6-amino-2-fluoro-9H-purin-9-yl)-2-ethynyl-2-((pentanoyloxy)methyl)tetrahydrofuran-3-yl Pentanoate]	0.011	0.068
C#C[C@]1(COC(=O)CCCC)O[C@@H](n2cnc3c(NC(=O)CCCCCCCCCCCCC)nc(F)nc32)C[C@@H]1O [Example 27, ((2R,3S,5R)-2-ethynyl-5-(2-fluoro-6-tetradecanamido-9H-purin-9-yl)-3-hydroxytetrahydrofuran-2-yl)methyl Pentanoate]	0.008	0.046
C#C[C@]1(COC(=O)C2CCCCC2)O[C@@H](n2cnc3c(N)nc(F)nc32)C[C@@H]1O [Example 1, ((2R,3S,5R)-5-(6-amino-2-fluoro-9H-purin-9-yl)-2-ethynyl-3-hydroxytetrahydrofuran-2-yl)methyl Cyclohexanecarboxylate]	0.002	0.008
